Assay results from PubChem BioAssay AID2060509 (Molecular Pharmacology Branch, DTP, NCI, 2025).
pIC50: −log10 of the molar value.

Test system: 485176-168-R4-J1-PDC spheroids with HUVEC/MSC, viability
Test: Anticancer human tumor 485176-168-R4-J1-PDC patient-derived pancreatic adenocarcinoma cell line growth inhibition [GQUAD]
Details: for pIC50: curve of first compound; for viability, T/C: stronger effect = lower value
Procedure, shortened: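 Tumor cells were grown as complex spheroids with HUVEC endothelial cells and mesenchymal stem cells as stroma. G-quadruplex stabilizers were combined with targeted agents over half-log dilutions from near the clinical Cmax, or from 10 microM.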

[1] = second compound 0.0316 µM, first compound 0.0316 µM
[2] = second compound 0.0316 µM, first compound 0.316 µM
[3] = second compound 0.1 µM, first compound 0.0316 µM
[4] = second compound 0.1 µM, first compound 0.316 µM
[5] = second compound 0.316 µM, first compound 0.0316 µM
[6] = second compound 0.316 µM, first compound 0.316 µM
[7] = second compound 1 µM, first compound 0.0316 µM
[8] = second compound 1 µM, first compound 0.316 µM
[9] = second compound 3.16 µM, first compound 0.0316 µM
[10] = second compound 3.16 µM, first compound 0.316 µM
[11] = second compound 10 µM, first compound 0.0316 µM
[12] = second compound 10 µM, first compound 0.316 µM
[13] = second compound 0.0316 µM, first compound 0.1 µM
[14] = second compound 0.0316 µM, first compound 1 µM
[15] = second compound 0.0316 µM, first compound 3.16 µM
[16] = second compound 0.0316 µM, first compound 10 µM
[17] = second compound 0.1 µM, first compound 0.1 µM
[18] = second compound 0.1 µM, first compound 1 µM
[19] = second compound 0.1 µM, first compound 3.16 µM
[20] = second compound 0.1 µM, first compound 10 µM
[21] = second compound 0.316 µM, first compound 0.1 µM
[22] = second compound 0.316 µM, first compound 1 µM
[23] = second compound 0.316 µM, first compound 3.16 µM
[24] = second compound 0.316 µM, first compound 10 µM
[25] = second compound 1 µM, first compound 0.1 µM
[26] = second compound 1 µM, first compound 1 µM
[27] = second compound 1 µM, first compound 3.16 µM
[28] = second compound 1 µM, first compound 10 µM
[29] = second compound 3.16 µM, first compound 0.1 µM
[30] = second compound 3.16 µM, first compound 1 µM
[31] = second compound 3.16 µM, first compound 3.16 µM
[32] = second compound 3.16 µM, first compound 10 µM
[33] = second compound 10 µM, first compound 0.1 µM
[34] = second compound 10 µM, first compound 1 µM
[35] = second compound 10 µM, first compound 3.16 µM
[36] = second compound 10 µM, first compound 10 µM
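Also: spheroids exposed to compounds for seven days before readout.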
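For viability, T/C in this document: percent viability relative to DMSO vehicle control wells as 100%.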

For `CCc1c2c(nc3ccc(O)cc13)-c1cc3c(c(=O)n1C2)COC(=O)[C@]3(O)CC` + CN(C)c1ccc(Nc2c3ccc(NC(=O)CCN4CCCC4)cc3nc3cc(NC(=O)CCN4CCCC4)ccc23)cc1, the pIC50 (second compound 0.0316 µM) was 8.16, the pIC50 (second compound 0.1 µM) was 8.03 and the pIC50 (second compound 0.316 µM) was 8.03. It also gave a pIC50 (second compound 1 µM) of 8.14, a pIC50 (second compound 3.16 µM) of 7.95 and a pIC50 (second compound 10 µM) of 8.11. For the same compound, the viability, T/C (second compound 0.0316 µM, first compound 0.000999 µM) was 87.7%, the viability, T/C (second compound 0.0316 µM, first compound 0.00316 µM) was 68.4% and the viability, T/C (second compound 0.0316 µM, first compound 0.00999 µM) was 38.3%. It also gave a viability, T/C [1] of 28.5%, a viability, T/C (second compound 0.0316 µM, first compound 0.0999 µM) of 13.5% and a viability, T/C [2] of 6%. For the same compound, the viability, T/C (second compound 0.1 µM, first compound 0.000999 µM) was 77.8%, the viability, T/C (second compound 0.1 µM, first compound 0.00316 µM) was 67.9% and the viability, T/C (second compound 0.1 µM, first compound 0.00999 µM) was 48.1%. It also gave a viability, T/C [3] of 28.6%, a viability, T/C (second compound 0.1 µM, first compound 0.0999 µM) of 11.2% and a viability, T/C [4] of 5.98%. For the same compound, the viability, T/C (second compound 0.316 µM, first compound 0.000999 µM) was 91.1%, the viability, T/C (second compound 0.316 µM, first compound 0.00316 µM) was 86.8% and the viability, T/C (second compound 0.316 µM, first compound 0.00999 µM) was 41.8%. The viability, T/C [5] was 27.6%, the viability, T/C (second compound 0.316 µM, first compound 0.0999 µM) was 12.9% and the viability, T/C [6] was 6.92%. The viability, T/C (second compound 1 µM, first compound 0.000999 µM) was 103%, the viability, T/C (second compound 1 µM, first compound 0.00316 µM) was 58% and the viability, T/C (second compound 1 µM, first compound 0.00999 µM) was 50.7%. For the same compound, the viability, T/C [7] was 28.1%, the viability, T/C (second compound 1 µM, first compound 0.0999 µM) was 13.8% and the viability, T/C [8] was 6.15%. For the same compound, the viability, T/C (second compound 3.16 µM, first compound 0.000999 µM) was 88.8%, the viability, T/C (second compound 3.16 µM, first compound 0.00316 µM) was 88% and the viability, T/C (second compound 3.16 µM, first compound 0.00999 µM) was 43.4%. The viability, T/C [9] was 34.2%, the viability, T/C (second compound 3.16 µM, first compound 0.0999 µM) was 14.3% and the viability, T/C [10] was 8.88%. For the same compound, the viability, T/C (second compound 10 µM, first compound 0.000999 µM) was 80.3%, the viability, T/C (second compound 10 µM, first compound 0.00316 µM) was 61% and the viability, T/C (second compound 10 µM, first compound 0.00999 µM) was 45.3%. It also gave a viability, T/C [11] of 34.1%, a viability, T/C (second compound 10 µM, first compound 0.0999 µM) of 19.3% and a viability, T/C [12] of 8.05%.

Compound `COc1cc(C2c3cc4c(cc3C(OC3OC5COC(C)OC5C(O)C3O)C3COC(=O)C23)OCO4)cc(OC)c1O` (stereo unspecified) + CN(C)c1ccc(Nc2c3ccc(NC(=O)CCN4CCCC4)cc3nc3cc(NC(=O)CCN4CCCC4)ccc23)cc1 has a pIC50 (second compound 0.0316 µM) of 6.47, a pIC50 (second compound 0.1 µM) of 6.32 and a pIC50 (second compound 0.316 µM) of 6.32. The pIC50 (second compound 1 µM) was 6.39, the pIC50 (second compound 3.16 µM) was 6.48 and the pIC50 (second compound 10 µM) was 6.52. It also gave a viability, T/C [1] of 87%, a viability, T/C [13] of 74.7% and a viability, T/C [2] of 38.9%. The viability, T/C [14] was 39.6%, the viability, T/C [15] was 30.1% and the viability, T/C [16] was 9.84%. The viability, T/C [3] was 89.6%, the viability, T/C [17] was 82.8% and the viability, T/C [4] was 46.4%. It also gave a viability, T/C [18] of 41.2%, a viability, T/C [19] of 29.2% and a viability, T/C [20] of 12.1%. For the same compound, the viability, T/C [5] was 98.8%, the viability, T/C [21] was 81.5% and the viability, T/C [6] was 47.5%. It also gave a viability, T/C [22] of 42.2%, a viability, T/C [23] of 26.3% and a viability, T/C [24] of 10.1%. For the same compound, the viability, T/C [7] was 90.6%, the viability, T/C [25] was 71.6% and the viability, T/C [8] was 50.6%. The viability, T/C [26] was 39.1%, the viability, T/C [27] was 24.6% and the viability, T/C [28] was 9.92%. The viability, T/C [9] was 75.5%, the viability, T/C [29] was 63.7% and the viability, T/C [10] was 44.5%. It also gave a viability, T/C [30] of 39.5%, a viability, T/C [31] of 33.6% and a viability, T/C [32] of 12.8%. For the same compound, the viability, T/C [11] was 95.5%, the viability, T/C [33] was 69.8% and the viability, T/C [12] was 45.3%. It also gave a viability, T/C [34] of 36.9%, a viability, T/C [35] of 23.4% and a viability, T/C [36] of 10.2%.

In the case of `O=c1[nH]cc(F)c(=O)[nH]1` + CN(C)c1ccc(Nc2c3ccc(NC(=O)CCN4CCCC4)cc3nc3cc(NC(=O)CCN4CCCC4)ccc23)cc1, the pIC50 (second compound 0.0316 µM) was less than 5.00, the pIC50 (second compound 0.1 µM) was 5.58 and the pIC50 (second compound 0.316 µM) was less than 5.00. The pIC50 (second compound 1 µM) was less than 5.00, the pIC50 (second compound 3.16 µM) was less than 5.00 and the pIC50 (second compound 10 µM) was 6.03. For the same compound, the viability, T/C [1] was 100%, the viability, T/C [13] was 105% and the viability, T/C [2] was 78.8%. It also gave a viability, T/C [14] of 61.8%, a viability, T/C [15] of 53.6% and a viability, T/C [16] of 53.6%. The viability, T/C [3] was 102%, the viability, T/C [17] was 87.7% and the viability, T/C [4] was 88.8%. For the same compound, the viability, T/C [18] was 56.2%, the viability, T/C [19] was 46.3% and the viability, T/C [20] was 51%. For the same compound, the viability, T/C [5] was 97.3%, the viability, T/C [21] was 91.5% and the viability, T/C [6] was 83.3%. The viability, T/C [22] was 52%, the viability, T/C [23] was 66.1% and the viability, T/C [24] was 57.2%. The viability, T/C [7] was 94.4%, the viability, T/C [25] was 106% and the viability, T/C [8] was 71.4%. For the same compound, the viability, T/C [26] was 56.1%, the viability, T/C [27] was 52% and the viability, T/C [28] was 53.2%. For the same compound, the viability, T/C [9] was 90.8%, the viability, T/C [29] was 94.1% and the viability, T/C [10] was 73.9%. For the same compound, the viability, T/C [30] was 59.6%, the viability, T/C [31] was 61.8% and the viability, T/C [32] was 47.2%. The viability, T/C [11] was 84.9%, the viability, T/C [33] was 80.2% and the viability, T/C [12] was 59.9%. It also gave a viability, T/C [34] of 51.4%, a viability, T/C [35] of 46.4% and a viability, T/C [36] of 45.5%.
